This note sets out measurements from patent US7208169B2, “Biphenyl carboxamides” (priority 2002, dated 2007).

The term inhibition denotes the change of the read-out against control, counted positive when it falls. Higher therefore signals a response far below the control.

Molecules are shown by their SMILES. Read-outs that look alike come from different tables or passages of the source.

Data set [1] in a line: logP determination by HPLC on reversed-phase column (EEC Directive 79/831 Annex V.A8). Type of data set: physicochemical. The note with it: pH 2.3, C18, 43° C., 0.1% aqueous phosphoric acid/acetonitrile, read-out: logP (pH2.3). As for the experimental part: The logP values given in the Preparation Examples were determined in accordance with EEC Directive 79/831 Annex V.A8 by HPLC (High Performance Liquid Chromatography) using a reversed-phase column (C 18). Temperature: 43° C.
Mobile phases for the determination in the acidic range: 0.1% aqueous phosphoric acid, acetonitrile; linear gradient from 10% acetonitrile to 90% acetonitrile.
Calibration was carried out using unbranched alkan-2-ones (having 3 to 16 carbon atoms) with known logP values (determination of the logP values by the retention times using linear interpolation between two successive alkanones).

The next data set has as its system Alternaria solani. Kind of data set: Alternaria test (tomato)/protective. The format is in vivo. The note with it: application rate 750 g/ha, protective, evaluation 7 days after inoculation. On the procedure: Alternaria Test (Tomato)/Protective
• 49 parts by weight of N,N-dimethylformamide Emulsifier: • 1 part by weight of alkylaryl polyglycol ether
(§1) To produce a suitable preparation of active compound, 1 part by weight of active compound is mixed with the stated amounts of solvent and emulsifier, and the concentrate is diluted with water to the desired concentration.
To test for protective activity, young tomato plants are sprayed with the preparation of active compound at the stated application rate. 1 day after the treatment, the plants are inoculated with a spore suspension of Alternaria solani and then remain at 100% relative humidity and at 20° C. for 24 h. The plants then remain at 96% relative atmospheric humidity and a temperature of 20° C.
(§2) Evaluation is carried out 7 days after the inoculation. 0% means an efficacy which corresponds to that of the control, whereas an efficacy of 100% means that no infection is observed.

The subject of another data set is Podosphaera leucotricha. Kind of data set: Podosphaera test (apple)/protective. The format is in vivo. The note with it: application rate 100 g/ha, protective, evaluation 10 days after inoculation. As for the experimental part: Podosphaera Test (Apple)/Protective
(§3) • 24.5 parts by weight of acetone • 24.5 parts by weight of dimethylacetamide Emulsifier: • 1.0 part by weight of alkylaryl polyglycol ether
(§4) To produce a suitable preparation of active compound, 1 part by weight of active compound is mixed with the stated amounts of solvents and emulsifier, and the concentrate is diluted with water to the desired concentration.
To test for protective activity, young plants are sprayed with the preparation of active compound at the stated application rate. After the spray coating has dried on, the plants are inoculated with an aqueous spore suspension of the apple mildew pathogen Podosphaera leucotricha. The plants are then placed in a greenhouse at about 23° C. and a relative atmospheric humidity of about 70%.
(§5) Evaluation is carried out 10 days after the inoculation. 0% means an efficacy which corresponds to that of the control, whereas an efficacy of 100% means that no infection is observed.

A further data set deals with Sphaerotheca fuliginea. The data set is described as follows: Sphaerotheca test (cucumber)/protective. The format is in vivo. The conditions noted are these: Podosphaera fuliginea, 168 h, application rate 100 g/ha, protective, evaluation 7 days after inoculation, read-out: Efficacy in %. As for the experimental part:
Sphaerotheca Test (Cucumber)/Protective
as §3, §4
To test for protective activity, young plants are sprayed with the preparation of active compound at the stated application rate. After the spray coating has dried on, the plants are inoculated with an aqueous spore suspension of Sphaerotheca fuliginea. The plants are then placed in a greenhouse at about 23° C. and a relative atmospheric humidity of about 70%.
as §2

The test system of another data set is Coriolus versicolor. The data set is described as follows: Inhibitory test using a giant colony of Basidiomycetes. Type of data set: cell-based. The note with it: Trametes versicolor; 6 ppm active compound in nutrient agar; 26° C.; growth of fungal threads. On the procedure: Inhibitory Test Using a Giant Colony of Basidiomycetes Mycelium pieces were punched out of a giant colony of the Basidiomycetes species Coriolus versicolor and incubated at 26° C. on a nutrient agar medium containing malt extract peptone. The inhibition of the growth of the fungal threads on active-compound-containing nutrient media was compared to the longitudinal growth on nutrient media without added active compound and rated as inhibition in percent. In this test, for example, the following compounds according to the invention of the Preparation Examples show good activity: […]

For a further data set, the system named is Venturia inaequalis. Kind of data set: Venturia test (apple)/protective. Type of data set: in vivo. The conditions noted are these: application rate 100 g/ha, protective, evaluation 10 days after inoculation. As for the experimental part:
Venturia Test (Apple)/Protective
as §3, §4
To test for protective activity, young plants are sprayed with the preparation of active compound at the stated application rate. After the spray coating has dried on, the plants are inoculated with an aqueous conidia suspension of the apple scab pathogen Venturia inaequalis and then remain in an incubation cabin at about 20° C. in 100% relative atmospheric humidity for 1 day.
The plants are then placed in a greenhouse at about 21° C. and a relative atmospheric humidity of about 90%.
as §5

For the next data set, the system named is Puccinia recondita. The data set is described as follows: Puccinia test (wheat)/protective. Type of data set: in vivo. The conditions noted are these: application rate 500 g/ha, protective, evaluation 10 days after inoculation. On the procedure:
Puccinia Test (Wheat)/Protective
• 25 parts by weight of N,N-dimethylacetamide Emulsifier: • 0.6 part by weight of alkylaryl polyglycol ether
as §1
To test for protective activity, young plants are sprayed with the preparation of active compound at the stated application rate. After the spray coating has dried on, the plants are sprayed with a conidia suspension of Puccinia recondita. The plants remain in an incubation cabin at 20° C. and 100% relative atmospheric humidity for 48 hours.
The plants are then placed in a greenhouse at a temperature of about 20° C. and a relative atmospheric humidity of 80% to promote the development of rust pustules.
as §5

With `Cn1cc(C(=O)Nc2ccccc2I)c(C(F)(F)F)n1` [Example (IV-1), N-(2-iodophenyl)-1-methyl-3-(trifluoromethyl)-1H-pyrazole-4-carboxamide], the chromatographic logP in data set [1] (reversed-phase C18 HPLC column) worked out at 2.46.
Same read-out and setting: the result for `OB(O)c1ccc2c(c1)OC(F)(F)C(F)(F)O2` [Example (V-1), 2,2,3,3-tetrafluoro-2,3-dihydro-1,4-benzodioxin-6-yl-boronic acid] reads 2.49.
Take `O=C(Nc1ccccc1-c1ccc2c(c1)OC(F)(F)O2)c1ccccc1C(F)(F)F` [Example 3]: the Efficacy in % in the data set with Alternaria solani was 94%; with Podosphaera leucotricha, 100%. For the same molecule, in data set [1], the chromatographic logP is 3.94. Also, in the data set with Sphaerotheca fuliginea, the pest or weed control at 100 g/ha was 98%.
Take `Cc1nn(C)c(F)c1C(=O)Nc1ccccc1-c1ccc2c(c1)OC(F)(F)O2` [Example 19]: in the data set with Coriolus versicolor, at 6 ppm the inhibition was 100%. Besides, the chromatographic logP in data set [1] (reversed-phase C18 HPLC column) came to 3.22. Besides, the Efficacy in % in the data set on Venturia inaequalis is on record as 96%; in the data set with Podosphaera leucotricha, 100%. Besides, the pest or weed control at 100 g/ha with Sphaerotheca fuliginea came to 92%.
On to `Cc1nc(C(F)(F)F)c(C(=O)Nc2ccccc2-c2ccc3c(c2)OC(F)(F)C(F)(F)O3)s1` [Example 10], for which the chromatographic logP in data set [1] (reversed-phase C18 HPLC column) worked out at 3.94. Moreover, the Efficacy in % with Venturia inaequalis and in the data set on Podosphaera leucotricha was 100% each time. The pest or weed control at 100 g/ha with Sphaerotheca fuliginea stood at 100%.
Turning to `Cc1nn(C)c(F)c1C(=O)Nc1ccccc1-c1ccc2c(c1)OC(F)(F)C(F)(F)O2` [Example 1, 5-fluoro-1,3-dimethyl-N-[2-(2,2,3,3-tetrafluoro-2,3-dihydro-1,4-benzodioxin-6-yl)phenyl]-1H-pyrazole-4-carboxamide], 6 ppm produced 100% inhibition with Coriolus versicolor. The Efficacy in % with Puccinia recondita, in the data set on Venturia inaequalis and in the data set with Podosphaera leucotricha was 100% each time. Further, the chromatographic logP in data set [1] (reversed-phase C18 HPLC column) amounted to 3.77. The pest or weed control at 100 g/ha in the data set with Sphaerotheca fuliginea stood at 98%.
Consider `Cc1ccsc1C(=O)Nc1ccccc1-c1ccc2c(c1)OC(F)(F)O2` [Example 4], for which, in data set [1] (reversed-phase C18 HPLC column), the chromatographic logP came out at 3.99. This molecule also displayed an Efficacy in % with Venturia inaequalis of 98%. The pest or weed control at 100 g/ha with Sphaerotheca fuliginea is 100%.
Molecule `Cc1nn(C)c(F)c1C(=O)Nc1c(F)cc(F)cc1-c1ccc2c(c1)OCO2` [Example 15] had an Efficacy in % in the data set on Alternaria solani of 95%. For the same molecule, the chromatographic logP in data set [1] (reversed-phase C18 HPLC column) turned out to be 2.34.
Take `O=C(Nc1ccccc1-c1ccc2c(c1)OC(F)(F)C(F)(F)O2)c1ccccc1C(F)(F)F` [Example 6]: the chromatographic logP in data set [1] was 5.93. Further, the figures for the Efficacy in % in the data set on Venturia inaequalis and in the data set on Podosphaera leucotricha were 99% and 100%, respectively. Moreover, the pest or weed control at 100 g/ha with Sphaerotheca fuliginea came out at 100%.
As to `Cn1cc(C(=O)Nc2ccccc2-c2ccc3c(c2)OC(F)(F)O3)c(C(F)(F)F)n1` [Example 2, N-[2-(2,2-difluoro-1,3-benzodioxol-5-yl)-phenyl]-1-methyl-3-(trifluoromethyl)-1H-pyrazol-4-carboxamide], the Efficacy in % with Alternaria solani, with Venturia inaequalis and in the data set with Podosphaera leucotricha was 100% each time. In addition, in data set [1] (reversed-phase C18 HPLC column), the chromatographic logP stood at 3.37. Besides, in the data set on Sphaerotheca fuliginea, the pest or weed control at 100 g/ha is 100%.
As to `Cc1nc(C(F)(F)F)c(C(=O)Nc2ccccc2-c2ccc3c(c2)OC(F)(F)O3)s1` [Example 5], the chromatographic logP in data set [1] (reversed-phase C18 HPLC column) was 3.81. Moreover, the Efficacy in % in the data set on Venturia inaequalis and in the data set on Podosphaera leucotricha was 100% in each case. In the data set with Sphaerotheca fuliginea, the pest or weed control at 100 g/ha was 100%.
